This is an account of results in patent US20230416261A1, “ETHANEDIAMINE-HETEROCYCLE DERIVATIVES AS INHIBITORS OF PROTEIN ARGININE METHYLTRANSFERASES” (Board of Regents, The University of Texas System, priority 2021, published 2023).

Assay [1] deals with PATC53 cells. Description: PATC53 Long Term Phenotypic Assay (14 days, crystal violet viability). It is filed as cell-based. The following applies: 336 h. The protocol: PATC53 cells were derived from the PATC53 PDX model and kindly provided by Jason Fleming (MDACC). The cells were routinely maintained in DMEM/F12 Medium (Corning, Catalog #10-090-CV) supplemented with 10% fetal bovine serum (Sigma, Catalog #F2442), 100 units/mL penicillin and 100 μg/mL streptomycin (Gibco, Catalog #15140-122) in a humidified incubator (37° C., 5% CO2). Prior to the assay, cells were seeded onto a 12-well, TC treated plate (Corning, catalog #353043) at a density of 250 cells per well in a volume of 1 mL. The plate was incubated for 24 hours at 37° C. and 5% CO2. Stock solutions of the test compounds were prepared in 100% DMSO (Sigma, Catalog #D2650) and serially diluted 1:3 using 100% DMSO. Compounds were additionally diluted 1:100 in culture medium, and 110 μL/well was transferred to the tissue culture plate. Following the compound addition, the plate was incubated at 37° C. and 5% CO2 for 14 days. Viability was then assessed by crystal violet staining (Fisher Scientific, Catalog #C58125) as follows: 450 μL of crystal violet (1 mg/mL) was added to the plate for a 10 minute incubation at room temperature. After incubation, the plate was washed 3× with distilled water to remove excess dye and allowed to dry overnight. The crystal violet was solubilized using 10% HOAc (500 μL) for 10 minutes at room temperature, while shaking. A volume of 100 μL was then transferred to a 96-well SpectraPlate (Perkin Elmer, Catalog #6005649). Absorbance at 590 nm was measured with a BioTek Synergy Neo. IC50 values were calculated using a four-parameter logistic curve fit using Genedata Screener software.

The target of assay [2] is T1, PRMT1 (Homo sapiens, UniProt Q99873). The assay is described as follows: PRMT1 Enzymatic Assay (LANCE TR-FRET, methylation of histone H4 at Arg3). It is filed as biochemical. The arrangement: purchased SignalChem P365-380G. The following applies: PRMT1 1.5 nM, SAM 1 μM, biotinylated histone H4 (1-21) 25 nM; read-out: PRMT-1 IC50. The method in brief:
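PRMT1 (1.5 nM) preincubated 15 min with compound at room temperature, then reacted 1 h with 1 μM SAM and 25 nM biotinylated histone H4 (1-21) in 50 mM Hepes pH 8, 1 mM TCEP, 0.003% Tween-20. H4R3me detected by TR-FRET (665/620 nm ratio); IC50 from four-parameter logistic fit.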
Background: In TR-FRET formats the signal depends on donor and acceptor labels being close together.

Assay [3] deals with T1, PRMT1. The assay is described as follows: PRMT1 RKO Cellular Target Engagement Assay (In-Cell Western, asymmetric di-methyl arginine). Type of assay: cell-based. The following applies: RKO cells, 48 hr compound incubation; read-out: RKO IC50 (PRMT-1 Target Engagement). A digest of the protocol:
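RKO cells (1,000/well) received 1:3 serially diluted compound for 48 h at 37 °C, then were fixed, permeabilised and immunostained for asymmetric di-methyl arginine by In-Cell Western. The 800 nm antibody signal was normalised to CellTag 700 nm; IC50 from four-parameter logistic fit.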

For assay [4], the system named is DOHH2 cells. Description: DOHH2 Long Term Phenotypic Assay (7 days, Cell Titer-Glo viability). The following applies: Homo sapiens, DOHH-2, 168 h, Cell Titer-Glo 2.0. It is filed as cell-based. A digest of the protocol:
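DOHH2 lymphoma cells (250 per well) in RPMI-1640 with 10% FBS were exposed to 1:3 serially diluted compounds for 7 days at 37 °C, 5% CO2. Viability was read by CellTiter-Glo 2.0 luminescence, and IC50 values came from four-parameter logistic fits.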
In general terms: Cellular ATP, detected with luciferase, serves as a proxy for viable cell number.

Broadly, the IC50 is the concentration at which inhibition is half-maximal.

T1 sequence (Q99873 whole entry): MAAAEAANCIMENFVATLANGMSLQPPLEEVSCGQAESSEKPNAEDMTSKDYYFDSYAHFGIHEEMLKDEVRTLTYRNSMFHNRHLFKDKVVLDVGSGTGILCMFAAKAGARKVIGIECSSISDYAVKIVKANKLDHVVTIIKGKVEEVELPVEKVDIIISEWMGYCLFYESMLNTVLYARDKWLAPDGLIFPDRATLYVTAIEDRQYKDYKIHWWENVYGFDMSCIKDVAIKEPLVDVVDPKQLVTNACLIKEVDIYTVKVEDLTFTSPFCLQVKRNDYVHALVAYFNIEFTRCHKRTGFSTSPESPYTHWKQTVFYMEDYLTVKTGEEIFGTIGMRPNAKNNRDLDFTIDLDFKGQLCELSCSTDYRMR

For `CCOCC1(COCC)CCC(c2c(CN(C)CCNC)nn3c2CN(C(=O)C2CC2)CC3)CC1` [Example 4, (3-(4,4-bis(ethoxymethyl)-cyclohexyl)-2-((methyl(2-(methylamino)ethyl)amino)-methyl)-6,7-dihydropyrazolo-[1,5-a]pyrazin-5(4H)-yl)-(cyclopropyl)methanone], the half-maximal inhibitory concentration (IC50) in assay [1] was 1260 nM; in assay [2] it was 48 nM; in assay [3] it was 110 nM; in assay [4] it was 47 nM.
For `CNCCN(C)Cc1nn2c(c1C1CCC(COC)(COC)CC1)CN(C(=O)C1CC1)CC2` [Example 5, (3-(4,4-bis(methoxymethyl)-cyclohexyl)-2-((methyl(2-(methylamino)ethyl)amino)-methyl)-6,7-dihydropyrazolo-[1,5-a]pyrazin-5(4H)-yl)-(cyclopropyl)methanone], in that order: 58 nM, 34 nM, 121 nM and 81 nM.
For `COCC1(COC)CCC(c2c(CN(C)CCN)nn3c2CN(C(=O)C2CC2)CC3)CC1` [Example 6, (2-(((2-aminoethyl)(methyl)-amino)methyl)-3-(4,4-bis-(methoxymethyl)cyclohexyl)-6,7-dihydropyrazolo[1,5-a]-pyrazin-5(4H)-yl)-(cyclopropyl)methanone], in that order: 147 nM, 14 nM, 361 nM and 138 nM.
As for `CNCCN(C)Cc1nn2c(c1C1CCC(COC)(COC)CC1)CN(C(=O)C(C)(C)C)CC2` [Example 8, 1-(3-(4,4-bis(methoxy-methyl)cyclohexyl)-2-((methyl(2-(methylamino)-ethyl)amino)methyl)-6,7-dihydropyrazolo[1,5-a]-pyrazin-5(4H)-yl)-2,2-dimethylpropan-1-one], the IC50 worked out at 100 nM in assay [1], 36 nM in assay [2], 913 nM in assay [3] and 67 nM in assay [4].
For `COCC1(COC)CCC(c2c(CN(C)CCN)nn3c2CN(C(=O)C2CCC2)CC3)CC1` [Example 11, (2-(((2-aminoethyl)(methyl)-amino)methyl)-3-(4,4-bis-(methoxymethyl)cyclohexyl)-6,7-dihydropyrazolo[1,5-a]-pyrazin-5(4H)-yl)-(cyclobutyl)methanone], in that order: 70 nM, 16 nM, 1210 nM and 111 nM.
For `CNCCN(C)Cc1nn2c(c1C1CCC(COC)(COC)CC1)CN(C(=O)C1(F)CC1)CC2` [Example 13, (3-(4,4-bis(methoxymethyl)-cyclohexyl)-2-((methyl(2-(methylamino)ethyl)amino)-methyl)-6,7-dihydropyrazolo-[1,5-a]pyrazin-5(4H)-yl)(1-fluorocyclopropyl)methanone], in that order: 38 nM, 56 nM, 225 nM and 150 nM.
As to `CNCCN(C)Cc1nn2c(c1C1CCC(COC)(COC)CC1)CN(C(=O)C1(OC)CC1)CC2` [Example 14, (3-(4,4-bis(methoxymethyl)-cyclohexyl)-2-((methyl(2-(methylamino)ethyl)amino)-methyl)-6,7-dihydropyrazolo-[1,5-a]pyrazin-5(4H)-yl)(1-methoxycyclopropyl)-methanone], the half-inhibitory concentration (IC50) in assay [1] amounted to 478 nM; in assay [2], 94 nM; in assay [3], 124 nM; in assay [4], 211 nM.
Turning to `CNCCN(C)Cc1nn2c(c1C1CCC(COC)(COC)CC1)CN(C(=O)C1(C#N)CC1)CC2` [Example 15, 1-(3-(4,4-bis(methoxy-methyl)cyclohexyl)-2-((methyl(2-(methylamino)-ethyl)amino)methyl)-4,5,6,7-tetrahydropyrazolo[1,5-a]-pyrazine-5-carbonyl)cyclopropane-1-carbonitrile], the IC50 in assay [1] was 732 nM; in assay [2] it was 71 nM; in assay [3], 370 nM; in assay [4] it was 211 nM.
As to `CNCCN(C)Cc1nn2c(c1C1CCC(COC)(COC)CC1)CN(C(=O)C1(C)COC1)CC2` [Example 16, (3-(4,4-bis(methoxymethyl)-cyclohexyl)-2-((methyl(2-(methylamino)ethyl)amino)-methyl)-6,7-dihydropyrazolo-[1,5-a]pyrazin-5(4H)-yl)(3-methyloxetan-3-yl)methanone], the IC50 in assay [1] was 209 nM; in assay [2], 64 nM; in assay [3] it was 370 nM; in assay [4], 160 nM.
`CNCCN(C)Cc1nn2c(c1C1CCC(COC)(COC)CC1)CN(C(=O)C1(C(F)(F)F)CC1)CC2` [Example 18, (3-(4,4-bis(methoxymethyl)-cyclohexyl)-2-((methyl(2-(methylamino)ethyl)amino)-methyl)-6,7-dihydropyrazolo-[1,5-a]pyrazin-5(4H)-yl)(1-(trifluoro-methyl)cyclopropyl)-methanone]: the concentration for half-maximal inhibition (IC50) in assay [1] is 48 nM; in assay [2], 60 nM; in assay [3] it was 137 nM; in assay [4] it was 142 nM.
For `CNCCN(C)Cc1nn2c(c1C1CCC(COC)(COC)CC1)CN(C(=O)C1(C)CCC1)CC2` [Example 19, (3-(4,4-bis(methoxymethyl)-cyclohexyl)-2-((methyl(2-(methylamino)ethyl)amino)-methyl)-6,7-dihydropyrazolo-[1,5-a]pyrazin-5(4H)-yl)(1-methylcyclobutyl)methanone], in that order: 37 nM, 52 nM, 214 nM and 87 nM.
For `CNCCN(C)Cc1nn2c(c1C1CCC(COC)(COC)CC1)CN(C(=O)C13CC(C1)C3)CC2` [Example 20, bicyclo[1.1.1]pentan-1-yl(3-(4,4-bis(methoxymethyl)-cyclohexyl)-2-((methyl(2-(methylamino)ethyl)amino)-methyl)-6,7-dihydropyrazolo-[1,5-a]pyrazin-5(4H)-yl)-methanone], in that order: 50 nM, 62 nM, 239 nM and 103 nM.
For `CNCCN(C)Cc1nn2c(c1C1CCC(COC)(COC)CC1)CN(C(=O)C13CC(F)(C1)C3)CC2` [Example 21, (3-(4,4-bis(methoxymethyl)-cyclohexyl)-2-((methyl(2-(methylamino)ethyl)amino)-methyl)-6,7-dihydropyrazolo-[1,5-a]pyrazin-5(4H)-yl)(3-fluorobicyclo[1.1.1]pentan-1-yl)methanone], in that order: 68 nM, 53 nM, 185 nM and 96 nM.
Turning to `CNCCN(C)Cc1nn2c(c1C1CCC(COC)(COC)CC1)CN(C(=O)C1(C(C)(F)F)COC1)CC2` [Example 23, (3-(4,4-bis(methoxymethyl)-cyclohexyl)-2-((methyl(2-(methylamino)ethyl)amino)-methyl)-6,7-dihydropyrazolo-[1,5-a]pyrazin-5(4H)-yl)(3-(1,1-difluoroethyl)oxetan-3-yl)methanone], the IC50 in assay [1] is 264 nM; in assay [2], 137 nM; in assay [3] it was 382 nM; in assay [4], 147 nM.
For `CNCCN(C)Cc1nn2c(c1C1CCC(COC)(COC)CC1)CN(C(=O)C(C)C)CC2` [Example 24, 1-(3-(4,4-bis(methoxy-methyl)cyclohexyl)-2-((methyl(2-(methylamino)-ethyl)amino)methyl)-6,7-dihydropyrazolo[1,5-a]-pyrazin-5(4H)-yl)-2-methylpropan-1-one], in that order: 69 nM, 76 nM, 254 nM and 103 nM.
On to `CNCCN(C)Cc1nn2c(c1C1CCC(COC)(COC)CC1)CN(C(=O)CC1CCOCC1)CC2` [Example 34, 1-(3-(4,4-bis(methoxy-methyl)cyclohexyl)-2-((methyl(2-(methylamino)-ethyl)amino)methyl)-6,7-dihydropyrazolo[1,5-a]-pyrazin-5(4H)-yl)-2-(tetrahydro-2H-pyran-4-yl)ethan-1-one], for which the half-maximal inhibitory concentration (IC50) in assay [1] turned out to be 642 nM; in assay [2], 124 nM; in assay [4], 198 nM.
